# Test results from patent publication US20230286930A1, “N -SUBSTITUTED 4-(1,3-ARYLOXAZOLO-2-YL)PHENYL COMPOUNDS FOR THE TREATMENT AND PROPHYLAXIS OF HEPATITIS B VIRUS INFECTION” (Hoffmann-La Roche Inc., priority 2020, published 2023).
# Legend:
# [1] = system: HBsAg; experiment: PHH natural infection assay, HBsAg (alphalisa); format: cell-based, HBV; conditions: Hepatitis B virus, read-out: HBsAg IC50
# Protocol: (§1) Detailed procedures regarding primary human hepatocyte (PHH) HBV natural infection assay are described as below. One tube of frozen PHH (10 million cells) is thawed in 37° C. water bath and then transferred to 20 mL of PHH thawing medium (Sigma, InVitroGRO HT Medium, Cat. S03319) with gently mixing. The cells were then centrifuged at […] for 5 min, the supernatant was discarded and the tube was refilled with 25 mL of PHH plating medium (Sigma, InVitroGRO CP Medium, Cat. S03317). The tube was shaken very gently to re-suspend all cells, and then 50 μL of cells were transferred to each well 384-well collagen I coated plate with appropriate liquid handling equipment, e.g. Integra VIAFLO384 or Agilent Bravo. The cells were then cultured for 24 hours in a cell incubator. For HBV infection, after PHH attachment on the culture plate, the plating medium was removed and replenished with PHH culture medium containing HBV virus. The PHH culture medium was prepared with Dulbecco's Modified Eagle Medium (DMEM)/F12 (1:1 in volume ratio) containing 10% fetal bovine serum (Gibco, Cat. 10099141), 5 ng/mL human epidermal growth factor (Gibco, Cat.PHG0311L), 20 ng/mL dexamethasone (Sigma, Cat.D4902-100 mg), 250 ng/mL human recombinant insulin (Gibco, Cat.41400045) and 100 U/mL penicillin. HBV virus at 200 genome equivalent (GE) per cell with 4% PEG8000 (Sigma, Cat.P1458) containing culture medium were added to the PHH culture medium for infection. The cells were then cultured for 24 hours in cell incubator. Then the cell culture supernatant was removed. The HBV-infected PHH were cultured with sandwich culture method with PHH culture medium containing 1% DMSO and 0.25 mg/mL matrix gel for 72 hours. The supernatant was then refreshed with PHH culture medium containing different concentrations of testing compounds for two times with 72-hour interval. At the end of treatment, the supernatant was collected for viral markers measurements, including HBsAg, HBeAg, HBV DNA and cytotoxicity. HBsAg and HBeAg were detected using alphalisa method using their specific antibodies. For HBV DNA detection, HBV DNA Quantitative Fluorescence Diagnostic Kit (Sansure Biotech Inc.) was used following the manufacture's protocol. Cytotoxicity was determined using Cell Counting Kit-8 (CCK8, Dojindo Molecular Technologies, Inc.).
# (§2) The compounds of the present invention were tested for their capacity to inhibit HBsAg and HBeAg as described herein.
# [2] = PHH natural infection assay, cytotoxicity (Cell Counting Kit-8); format: cell-based; conditions: human
# Protocol: as §1
# [3] = system: HBeAg; experiment: PHH natural infection assay, HBeAg (alphalisa); format: cell-based, HBV; conditions: Hepatitis B virus, read-out: HBeAg IC50
# Protocol: as §1, §2
structure (smiles),measurement,setting,value
"O=C(Nc1ccc(-c2nc3c(F)cccc3o2)cc1)C1CCS(=O)(=O)CC1 [Example 55, N-[4-(4-fluoro-1,3-benzoxazol-2-yl)phenyl]-1,1-dioxo-thiane-4-carboxamide]",IC50,[1],2960 nM
same,CC50 at 144 h,[2],> 100000 nM
same,IC50,[3],2800 nM
"CC1(C(=O)Nc2ccc(-c3nc4c(F)cccc4o3)cc2)CC(=O)C1 [Example 56, N-[4-(4-fluoro-1,3-benzoxazol-2-yl)phenyl]-1-methyl-3-oxo-cyclobutanecarboxamide]",IC50,[1],3390 nM
same,CC50 at 144 h,[2],> 100000 nM
same,IC50,[3],4300 nM
"O=C(Nc1ccc(-c2nc3c(F)cccc3o2)cc1)C1CS(=O)(=O)C1 [Example 57, N-[4-(4-fluoro-1,3-benzoxazol-2-yl)phenyl]-1,1-dioxo-thietane-3-carboxamide]",IC50,[1],8190 nM
same,CC50 at 144 h,[2],> 100000 nM
same,IC50,[3],9080 nM
"COC(=O)Nc1ccc(-c2nc3c(F)cccc3o2)cc1 [Example 58, methyl N-[4-(4-fluoro-1,3-benzoxazol-2-yl)phenyl]carbamate]",IC50,[1],5960 nM
same,CC50 at 144 h,[2],> 100000 nM
same,IC50,[3],8770 nM
"CCOC(=O)Nc1ccc(-c2nc3c(F)cccc3o2)cc1 [Example 59, ethyl N-[4-(4-fluoro-1,3-benzoxazol-2-yl)phenyl]carbamate]",IC50,[1],1640 nM
same,CC50 at 144 h,[2],> 100000 nM
same,IC50,[3],1570 nM
"CC(C)OC(=O)Nc1ccc(-c2nc3c(F)cccc3o2)cc1 [Example 60, isopropyl N-[4-(4-fluoro-1,3-benzoxazol-2-yl)phenyl]carbamate]",IC50,[1],5040 nM
same,CC50 at 144 h,[2],> 100000 nM
same,IC50,[3],3000 nM
"CC(C)(C)C(=O)Nc1ccc(-c2nc3cccnc3o2)cc1 [Example 61, 2,2-dimethyl-N-(4-oxazolo[5,4-b]pyridin-2-ylphenyl)propanamide]",IC50,[1],1500 nM
same,CC50 at 144 h,[2],> 100000 nM
same,IC50,[3],1550 nM
"COC(C)C(=O)Nc1ccc(-c2nc3cccnc3o2)cc1 (stereo not drawn) [Example 62, 2-methoxy-N-(4-oxazolo[5,4-b]pyridin-2-ylphenyl)propanamide]",IC50,[1],1610 nM
same,CC50 at 144 h,[2],> 100000 nM
same,IC50,[3],3290 nM
"O=C(Nc1ccc(-c2nc3cccnc3o2)cc1)C1CCS(=O)(=O)C1 (stereo not drawn) [Example 63, N-(4-oxazolo[5,4-b]pyridin-2-ylphenyl)-1,1-dioxo-thiolane-3-carboxamide]",IC50,[1],2530 nM
same,CC50 at 144 h,[2],> 100000 nM
same,IC50,[3],4830 nM
"CC1(C(=O)Nc2ccc(-c3nc4cccnc4o3)cc2)CCOC1 (stereo not drawn) [Example 64, 3-methyl-N-(4-oxazolo[5,4-b]pyridin-2-ylphenyl)tetrahydrofuran-3-carboxamide]",IC50,[1],2760 nM
same,CC50 at 144 h,[2],> 100000 nM
same,IC50,[3],3560 nM
"CC1(C(=O)Nc2ccc(-c3nc4cccnc4o3)cc2)COC1 [Example 65, 3-methyl-N-(4-oxazolo[5,4-b]pyridin-2-ylphenyl)oxetane-3-carboxamide]",IC50,[1],2730 nM
same,CC50 at 144 h,[2],> 100000 nM
same,IC50,[3],2200 nM
"O=C(Nc1ccc(-c2nc3cccnc3o2)cc1)C1CCS(=O)(=O)CC1 [Example 66, N-(4-oxazolo[5,4-b]pyridin-2-ylphenyl)-1,1-dioxo-thiane-4-carboxamide]",IC50,[1],3900 nM
same,CC50 at 144 h,[2],> 100000 nM
same,IC50,[3],6110 nM
"O=C(Nc1ccc(-c2nc3cccnc3o2)cc1)C1CCOC1 (stereo not drawn) [Example 67, N-(4-oxazolo[5,4-b]pyridin-2-ylphenyl)tetrahydrofuran-3-carboxamide]",IC50,[1],3080 nM
same,CC50 at 144 h,[2],> 100000 nM
same,IC50,[3],3300 nM
"O=C(Nc1ccc(-c2nc3cccnc3o2)cc1)C1COC1 [Example 68, N-(4-oxazolo[5,4-b]pyridin-2-ylphenyl)oxetane-3-carboxamide]",IC50,[1],4510 nM
same,CC50 at 144 h,[2],> 100000 nM
same,IC50,[3],4220 nM
"O=C(Nc1ccc(-c2nc3c(F)c(F)ccc3o2)cc1)C1CCOC1 (stereo not drawn) [Example 69, N-[4-(4,5-difluoro-1,3-benzoxazol-2-yl)phenyl]tetrahydrofuran-3-carboxamide]",IC50,[1],1490 nM
same,CC50 at 144 h,[2],> 100000 nM
same,IC50,[3],2100 nM
"O=C(Nc1ccc(-c2nc3cc(F)cc(F)c3o2)cc1)C1CCOC1 (stereo not drawn) [Example 70, N-[4-(5,7-difluoro-1,3-benzoxazol-2-yl)phenyl]tetrahydrofuran-3-carboxamide]",IC50,[1],1750 nM
same,CC50 at 144 h,[2],> 100000 nM
same,IC50,[3],2460 nM
"Cc1ccc2nc(-c3ccc(NC(=O)C4CCOC4)cc3)oc2n1 (stereo not drawn) [Example 71, N-[4-(5-methyloxazolo[5,4-b]pyridin-2-yl)phenyl]tetrahydrofuran-3-carboxamide]",IC50,[1],9290 nM
same,CC50 at 144 h,[2],> 100000 nM
same,IC50,[3],17500 nM
"COc1ccc2nc(-c3ccc(NC(=O)C4CCOC4)cc3)oc2n1 (stereo not drawn) [Example 72, N-[4-(5-methoxyoxazolo[5,4-b]pyridin-2-yl)phenyl]tetrahydrofuran-3-carboxamide]",IC50,[1],2220 nM
same,CC50 at 144 h,[2],> 100000 nM
same,IC50,[3],2610 nM
"O=C(Nc1ccc(-c2nc3cc(Cl)ccc3o2)cc1)c1ncco1 [Example 73, N-[4-(5-chloro-1,3-benzoxazol-2-yl)phenyl]oxazole-2-carboxamide]",IC50,[1],1780 nM
same,CC50 at 144 h,[2],> 100000 nM
same,IC50,[3],2050 nM
"O=C(Nc1ccc(-c2nc3cc(Cl)ccc3o2)cc1)c1ccccn1 [Example 74, N-[4-(5-chloro-1,3-benzoxazol-2-yl)phenyl]pyridine-2-carboxamide]",IC50,[1],4100 nM
same,CC50 at 144 h,[2],> 100000 nM
same,IC50,[3],5440 nM
"O=C(Nc1ccc(-c2nc3cc(Cl)ccc3o2)cc1)C1CCOC1 (stereo not drawn) [Example 75, N-[4-(5-chloro-1,3-benzoxazol-2-yl)phenyl]tetrahydrofuran-3-carboxamide]",IC50,[1],1100 nM
same,CC50 at 144 h,[2],> 100000 nM
same,IC50,[3],1340 nM
"O=C(Nc1ccc(-c2nc3cc(Cl)ccc3o2)cc1)C12CC(C1)C2 [Example 76, N-[4-(5-chloro-1,3-benzoxazol-2-yl)phenyl]bicyclo[1.1.1]pentane-1-carboxamide]",IC50,[1],1590 nM
same,CC50 at 144 h,[2],> 100000 nM
same,IC50,[3],2110 nM
"CC(O)C(=O)Nc1ccc(-c2nc3cc(Cl)ccc3o2)cc1 (stereo not drawn) [Example 77, N-[4-(5-chloro-1,3-benzoxazol-2-yl)phenyl]-2-hydroxy-propanamide]",IC50,[1],2850 nM
same,CC50 at 144 h,[2],> 100000 nM
same,IC50,[3],2540 nM
"Cc1cnc(C(=O)Nc2ccc(-c3nc4ccc(F)c(F)c4o3)cc2)o1 [Example 78, N-[4-(6,7-difluoro-1,3-benzoxazol-2-yl)phenyl]-5-methyl-oxazole-2-carboxamide]",IC50,[1],810 nM
same,CC50 at 144 h,[2],> 100000 nM
same,IC50,[3],1110 nM
"Cc1coc(C(=O)Nc2ccc(-c3nc4ccc(F)c(F)c4o3)cc2)n1 [Example 79, N-[4-(6,7-difluoro-1,3-benzoxazol-2-yl)phenyl]-4-methyl-oxazole-2-carboxamide]",IC50,[1],820 nM
same,CC50 at 144 h,[2],> 100000 nM
same,IC50,[3],1030 nM
"Cc1nnc(C(=O)Nc2ccc(-c3nc4ccc(F)c(F)c4o3)cc2)o1 [Example 80, N-[4-(6,7-difluoro-1,3-benzoxazol-2-yl)phenyl]-5-methyl-1,3,4-oxadiazole-2-carboxamide]",IC50,[1],1340 nM
same,CC50 at 144 h,[2],> 100000 nM
same,IC50,[3],2110 nM
"Cc1ncc(C(=O)Nc2ccc(-c3nc4ccc(F)c(F)c4o3)cc2)o1 [Example 81, N-[4-(6,7-difluoro-1,3-benzoxazol-2-yl)phenyl]-2-methyl-oxazole-5-carboxamide]",IC50,[1],1430 nM
same,CC50 at 144 h,[2],> 100000 nM
same,IC50,[3],2060 nM
